In US8431514B2, “4-cyano-3-benzoylamino-N-phenyl-benzamides for use in pest control” (Syngenta Crop Protection LLC, priority 2009, dated 2013):
Read-outs that look alike come from different tables or passages of the source.

Assays:
Assay type in all cases: in vivo
Heliothis virescens = Heliothis virescens (tobacco budworm) egg test on artificial diet; conditions: 96 h, application rate 200 ppm (concentration in well 18 ppm), eggs 0-24 h old on artificial diet, egg mortality, larval mortality and growth regulation after 4 days
Experimental: (§1) These Examples illustrate the insecticidal and acaricidal properties of the compounds of formula (I). The tests were performed as follows:
(§2) Cotton leaf discs were placed on agar in a 24-well microtiter plate and sprayed with test solutions at an application rate of 200 ppm. After drying, the leaf discs were infested with 5 L1 larvae. The samples were checked for mortality, feeding behavior, and growth regulation 3 days after treatment (DAT). The following compound gave at least 80% control of Spodoptera littoralis: A1, A2, A3, A4, A5, A6, A7, A8, A9, A10, A11, A12, A14, A15, A16, A17, A18, A19, A20. Heliothis Virescens (Tobacco Budworm): Eggs (0-24 h old) were placed in 24-well microtiter plate on artificial diet and treated with test solutions at an application rate of 200 ppm (concentration in well 18 ppm) by pipetting. After an incubation period of 4 days, samples were checked for egg mortality, larval mortality, and growth regulation. The following compound gave at least 80% control of Heliothis virescens: A1, A2, A3, A4, A5, A6, A7, A8, A9, A10, A11, A12, A14, A15, A16, A17, A18, A19, A20. Plutella Xylostella (Diamond Back Moth): 24-well microtiter plate (MTP) with artificial diet was treated with test solutions at an application rate of 200 ppm (concentration in well 18 ppm) by pipetting. After drying, the MTP's were infested with L2 larvae (7-12 per well). After an incubation period of 6 days, samples were checked for larval mortality and growth regulation. The following compound gave at least 80% control of Plutella xylostella: A1, A2, A3, A4, A5, A6, A7, A8, A9, A10, A11, A12, A13, A14, A15, A16, A17, A18, A19, A20. Diabrotica Balteata (Corn Root Worm): A 24-well microtiter plate (MTP) with artificial diet was treated with test solutions at an application rate of 200 ppm (concentration in well 18 ppm) by pipetting. After drying, the MTP's were infested with L2 larvae (6-10 per well). After an incubation period of 5 days, samples were checked for larval mortality and growth regulation. The following compound gave at least 80% control of Diabrotica balteata: A1, A2, A3, A4, A5, A6, A7, A8, A9, A10, A11, A12, A13, A14, A16, A17, A18, A19, A20. Thrips Tabaci (Onion Thrips): Sunflower leaf discs were placed on agar in a 24-well microtiter plate and sprayed with test solutions at an application rate of 200 ppm. After drying, the leaf discs were infested with an […] population of mixed ages. After an incubation period of 7 days, samples were checked for mortality. The following compounds gave at least 80% control of Thrips tabaci: A1, A2, A3, A4, A5, A6, A7, A8, A9, A10, A14, A16, A17, A18, A19, A20. Tetranychus Urticae (Two-Spotted Spider Mite): Bean leaf discs on agar in 24-well microtiter plates were sprayed with test solutions at an application rate of 200 ppm. After drying, the leaf discs are infested with mite populations of mixed ages. 8 days later, discs are checked for egg mortality, larval mortality, and adult mortality. The following compounds gave at least 80% control of Tetranychus urticae: A1, A2, A3, A4, A5, A6, A7, A8, A9, A10, A11, A12, A13, A14, A15, A16, A17, A19, A20.

Diabrotica balteata = Diabrotica balteata (corn root worm) artificial diet test; conditions: 120 h, application rate 200 ppm (concentration in well 18 ppm), L2 larvae, larval mortality and growth regulation after 5 days
Experimental: as §1, §2

Plutella xylostella = Plutella xylostella (diamond back moth) artificial diet test; conditions: 144 h, application rate 200 ppm (concentration in well 18 ppm), L2 larvae, larval mortality and growth regulation after 6 days
Experimental: as §1, §2

Spodoptera littoralis = Spodoptera littoralis (Egyptian cotton leafworm) leaf disc spray test; conditions: foliar, 72 h, application rate 200 ppm, cotton leaf discs, 5 L1 larvae, mortality, feeding behavior and growth regulation 3 days after treatment
Experimental: as §1, §2

Tetranychus urticae = Tetranychus urticae (two-spotted spider mite) bean leaf disc spray test; conditions: foliar, 192 h, read-out: control of Tetranychus urticae
Experimental: as §1, §2

Thrips tabaci = Thrips tabaci (onion thrips) sunflower leaf disc spray test; conditions: foliar, 168 h, application rate 200 ppm, sunflower leaf discs, population of mixed ages, mortality after 7 days
Experimental: as §1, §2

[1] = application rate 200 ppm, bean leaf discs, mite populations of mixed ages, egg, larval and adult mortality 8 days later

Measured: pest or weed control at 200 ppm

Cc1cc(C#N)ccc1C(=O)Nc1cc(C(=O)Nc2c(Br)cc(C(F)(C(F)(F)F)C(F)(F)C(F)(F)F)cc2Br)ccc1C#N (stereo not drawn) [A4, 4-cyano-3-(4′-cyano-2′-methylbenzoylamino)-N-[2,6-dibromo-4-(1,2,2,3,3,3-hexafluoro-1-trifluoromethylpropyl)phenyl]benzamide]
≥ 80%: Heliothis virescens | Diabrotica balteata | Plutella xylostella | Spodoptera littoralis | Tetranychus urticae; [1] | Thrips tabaci

Cc1cc(C#N)ccc1C(=O)Nc1cc(C(=O)Nc2c(C)cc(C(F)(C(F)(F)F)C(F)(F)C(F)(F)F)cc2C)ccc1C#N (stereo not drawn) [A16, 4-cyano-3-(4′-cyano-2′-methyl-benzoylamino)-N-[2,6-dimethyl-4-(1,2,2,3,3,3-hexafluoro-1-trifluoromethylpropyl)phenyl]benzamide]
≥ 80%: Heliothis virescens | Diabrotica balteata | Plutella xylostella | Spodoptera littoralis | Tetranychus urticae; [1] | Thrips tabaci

COCc1cc(C(F)(C(F)(F)F)C(F)(F)C(F)(F)F)cc(C)c1NC(=O)c1ccc(C#N)c(NC(=O)c2ccc(C#N)cc2C)c1 (stereo not drawn) [A9, 4-cyano-3-(4′-cyano-2′-methyl-benzoylamino)-N-[4-(1,2,2,3,3,3-hexafluoro-1-trifluoromethylpropyl)-2-methoxymethyl-6-methylphenyl]benzamide]
≥ 80%: Heliothis virescens | Diabrotica balteata | Plutella xylostella | Spodoptera littoralis | Tetranychus urticae; [1] | Thrips tabaci

Cc1cc(C#N)ccc1C(=O)Nc1cc(C(=O)Nc2c(Cl)cc(C(F)(C(F)(F)F)C(F)(F)C(F)(F)F)cc2Cl)ccc1C#N (stereo not drawn) [A8, 4-cyano-3-(4′-cyano-2′-methylbenzoylamino)-N-[2,6-dichloro-4-(1,2,2,3,3,3-hexafluoro-1-trifluoromethylpropyl)phenyl]benzamide]
≥ 80%: Heliothis virescens | Diabrotica balteata | Plutella xylostella | Spodoptera littoralis | Tetranychus urticae; [1] | Thrips tabaci

CCc1cc(C(F)(C(F)(F)F)C(F)(F)C(F)(F)F)cc(C)c1NC(=O)c1ccc(C#N)c(NC(=O)c2ccc(C#N)cc2C)c1 (stereo not drawn) [A1, 4-cyano-3-(4′-cyano-2′-methylbenzoylamino)-N-[2-ethyl-6-methyl-4-(1,2,2,3,3,3-hexafluoro-1-trifluoromethylpropyl)phenyl]benzamide]
≥ 80%: Heliothis virescens | Diabrotica balteata | Plutella xylostella | Spodoptera littoralis | Tetranychus urticae; [1] | Thrips tabaci

Cc1cc(C#N)ccc1C(=O)Nc1cc(C(=O)Nc2c(C)cc(C3(F)C(F)(F)C(F)(F)C(F)(F)C(F)(F)C3(F)F)cc2C)ccc1C#N [A17, 4-cyano-3-(4′-cyano-2′-methylbenzoylamino)-N-[2,6-dimethyl-4-(undecafluorocyclohexyl)phenyl]benzamide]
≥ 80%: Heliothis virescens | Diabrotica balteata | Plutella xylostella | Spodoptera littoralis | Tetranychus urticae | Thrips tabaci

Cc1cc(C#N)ccc1C(=O)Nc1c(C#N)ccc(C(=O)Nc2c(Cl)cc(C(F)(C(F)(F)F)C(F)(F)C(F)(F)F)cc2Br)c1F (stereo not drawn) [A6, N-[2-bromo-6-chloro-4-(1,2,2,3,3,3-hexafluoro-1-trifluoromethylpropyl)-phenyl]-4-cyano-3-(4′-cyano-2′-methylbenzoylamino)-2-fluorobenzamide]
≥ 80%: Heliothis virescens | Diabrotica balteata | Plutella xylostella | Spodoptera littoralis | Tetranychus urticae; [1] | Thrips tabaci
